How the values were obtained:
[1] = Octanol-water partition coefficient, log P of the compound; assay type: physicochemical
Rattus norvegicus = experiment: Ratio of compound to iproniazid for in vivo inhibition of monoamine oxidase in rat brain assessed as increase in serotonin production after 16 hrs; assay type: functional

logP ([1]; read-out: logP) | logP [1] | Structure (SMILES) | Ratio (Rattus norvegicus)
1.61 | – | CC(C)NNC(=O)c1cccs1 | 198
1.61 | – | CC(C)NNC(=O)c1ccsc1 | 192
0.32 | – | CC(C)NNC(=O)c1ccccn1 | 191
2.84 | – | CC(C)NNC(=O)c1ccc(Cl)cc1 | 134
2.84 | – | CC(C)NNC(=O)c1cccc(Cl)c1 | 123
0.32 | – | CC(C)NNC(=O)c1cccnc1 | 111
3.66 | – | CC(C)NNC(=O)c1ccc(C(C)C)cc1 | 97
2.11 | – | COc1ccc(C(=O)NNC(C)C)cc1 | 63
0.9 | – | CC(C)NNC(=O)c1ccc(N)cc1 | 15
1.46 | – | CC(C)NNC(=O)c1ccc(O)cc1 | 11
– | 0.32 | CC(C)NNC(=O)c1ccncc1 [IPRONIAZID] | 100

Further lines, the molecule ahead of its results:

Structure (SMILES) | logP ([1]; read-out: logP) | logP [1] | Ratio (Rattus norvegicus)
CC(C)NNC(=O)c1ccco1 | – | – | 156
CC(C)NNC(=O)c1cnccn1 | – | – | 152
CC(C)NNC(=O)c1cccc([N+](=O)[O-])c1 | 1.85 | – | 125
CC(C)NNC(=O)c1cc[nH]n1 | – | – | 84
Cc1ccc(C(=O)NNC(C)C)cc1C | 3.25 | – | 76
CC(C)NNC(=O)c1ccccc1N | 0.9 | – | 60
Cc1ncsc1C(=O)NNC(C)C | 0.44 | – | 38
CC(C)NNC(=O)c1c[nH]nn1 | – | – | 38
CC(C)NNC(=O)c1cccnn1 | – | – | 0
CC(C)NNC(=O)c1ccccc1O | 1.46 | – | 0
Cc1ncc(C(=O)NNC(C)C)c(C)n1 | -0.4 | – | 0
Cc1noc(C)c1C(=O)NNC(C)C | 1.2 | – | 0

Reference: ChEMBL document CHEMBL3272105, “Quantitative structure-activity studies on monoamine oxidase inhibitors” (J Med Chem, 1976)
